Experimental data as given in ChEMBL document CHEMBL5465560, “Selectivity Literature for EUbOPEN Chemogenomic Library” (2024).

Assays:
[1] = molecular target: T1, Inhibitor of nuclear factor kappa-B kinase subunit beta (Homo sapiens) (UniProt O14920); test: Selectivity interaction (KinomeScan (DiscoverX)) EUB0000045b IKBKB
T1 sequence (whole entry): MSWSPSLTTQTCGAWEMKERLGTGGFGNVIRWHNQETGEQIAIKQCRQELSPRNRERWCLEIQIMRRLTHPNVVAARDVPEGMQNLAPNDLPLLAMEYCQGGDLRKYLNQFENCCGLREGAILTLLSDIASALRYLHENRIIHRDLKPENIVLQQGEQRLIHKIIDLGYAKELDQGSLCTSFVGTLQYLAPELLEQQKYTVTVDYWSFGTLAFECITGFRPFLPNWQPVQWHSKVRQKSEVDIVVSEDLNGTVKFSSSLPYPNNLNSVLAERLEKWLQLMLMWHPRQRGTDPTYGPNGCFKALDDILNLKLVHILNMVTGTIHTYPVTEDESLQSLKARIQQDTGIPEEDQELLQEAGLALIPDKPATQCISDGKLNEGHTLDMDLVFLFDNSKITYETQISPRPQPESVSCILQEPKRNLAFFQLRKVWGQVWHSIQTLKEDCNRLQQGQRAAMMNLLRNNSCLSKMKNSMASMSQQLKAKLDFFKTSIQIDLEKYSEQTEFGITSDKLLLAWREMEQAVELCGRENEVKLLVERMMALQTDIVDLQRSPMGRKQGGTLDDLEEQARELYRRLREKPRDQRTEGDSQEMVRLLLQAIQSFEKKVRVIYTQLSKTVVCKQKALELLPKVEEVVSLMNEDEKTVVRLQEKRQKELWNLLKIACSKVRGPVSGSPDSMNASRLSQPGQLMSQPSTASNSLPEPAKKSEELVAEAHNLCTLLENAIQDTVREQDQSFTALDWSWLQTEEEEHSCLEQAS

[2] = molecular target: Serine/threonine-protein kinase tousled-like 2 (Homo sapiens) (UniProt Q86UE8); test: Selectivity interaction (KinomeScan (DiscoverX)) EUB0000045b TLK2
Chain of Serine/threonine-protein kinase tousled-like 2 (Homo sapiens) (Q86UE8 whole entry, looked up): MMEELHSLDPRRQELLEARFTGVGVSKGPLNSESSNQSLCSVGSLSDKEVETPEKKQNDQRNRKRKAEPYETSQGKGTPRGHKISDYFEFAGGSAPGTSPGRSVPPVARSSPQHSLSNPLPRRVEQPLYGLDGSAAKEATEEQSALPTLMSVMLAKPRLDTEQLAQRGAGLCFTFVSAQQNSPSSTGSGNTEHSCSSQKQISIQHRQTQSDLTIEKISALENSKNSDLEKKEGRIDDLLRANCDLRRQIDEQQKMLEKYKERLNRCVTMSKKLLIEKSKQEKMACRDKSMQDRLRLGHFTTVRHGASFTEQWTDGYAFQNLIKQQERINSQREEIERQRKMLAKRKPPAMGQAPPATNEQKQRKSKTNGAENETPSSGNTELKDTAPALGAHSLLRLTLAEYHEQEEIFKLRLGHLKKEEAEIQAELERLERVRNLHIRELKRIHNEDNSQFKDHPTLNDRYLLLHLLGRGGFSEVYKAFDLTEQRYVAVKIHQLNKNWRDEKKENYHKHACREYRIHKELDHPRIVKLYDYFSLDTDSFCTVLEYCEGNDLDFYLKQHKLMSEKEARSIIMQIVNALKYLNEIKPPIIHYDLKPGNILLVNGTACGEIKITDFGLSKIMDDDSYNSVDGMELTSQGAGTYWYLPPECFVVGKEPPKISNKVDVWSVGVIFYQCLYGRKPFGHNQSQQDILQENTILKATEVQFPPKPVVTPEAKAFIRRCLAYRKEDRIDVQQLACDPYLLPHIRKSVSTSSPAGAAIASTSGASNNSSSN

[3] = molecular target: T2, Dual specificity mitogen-activated protein kinase kinase 6 (Homo sapiens) (UniProt P52564); test: Selectivity interaction (KinomeScan (DiscoverX)) EUB0000666a MAP2K6; settings: at 10 µM
T2 sequence (whole entry): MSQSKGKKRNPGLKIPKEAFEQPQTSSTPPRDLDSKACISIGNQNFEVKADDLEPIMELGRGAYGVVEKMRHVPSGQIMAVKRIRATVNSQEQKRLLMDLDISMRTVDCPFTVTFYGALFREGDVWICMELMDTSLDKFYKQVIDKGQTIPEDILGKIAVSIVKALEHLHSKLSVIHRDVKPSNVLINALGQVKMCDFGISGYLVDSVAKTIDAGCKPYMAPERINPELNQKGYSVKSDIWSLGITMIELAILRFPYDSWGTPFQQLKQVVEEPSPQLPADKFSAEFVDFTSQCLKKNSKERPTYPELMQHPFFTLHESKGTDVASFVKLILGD

[4] = molecular target: T3, Casein kinase I isoform alpha-like (Homo sapiens) (UniProt Q8N752); settings: at 10 µM
T3 sequence (whole entry): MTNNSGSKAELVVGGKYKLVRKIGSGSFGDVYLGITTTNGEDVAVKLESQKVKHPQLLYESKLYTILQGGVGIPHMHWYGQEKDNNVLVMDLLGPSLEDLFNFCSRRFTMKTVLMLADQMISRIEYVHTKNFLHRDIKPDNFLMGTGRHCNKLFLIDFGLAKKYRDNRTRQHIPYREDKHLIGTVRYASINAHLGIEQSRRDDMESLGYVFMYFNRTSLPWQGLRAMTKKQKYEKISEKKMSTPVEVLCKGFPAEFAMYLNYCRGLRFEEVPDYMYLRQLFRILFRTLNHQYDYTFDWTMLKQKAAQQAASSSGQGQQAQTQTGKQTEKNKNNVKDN

[5] = molecular target: Ribosomal protein S6 kinase alpha-2 (Homo sapiens) (UniProt Q15349); test: Selectivity interaction (KinomeScan (DiscoverX)) EUB0001619a RPS6KA2; settings: at 1 µM
Chain of Ribosomal protein S6 kinase alpha-2 (Homo sapiens) (Q15349 whole entry): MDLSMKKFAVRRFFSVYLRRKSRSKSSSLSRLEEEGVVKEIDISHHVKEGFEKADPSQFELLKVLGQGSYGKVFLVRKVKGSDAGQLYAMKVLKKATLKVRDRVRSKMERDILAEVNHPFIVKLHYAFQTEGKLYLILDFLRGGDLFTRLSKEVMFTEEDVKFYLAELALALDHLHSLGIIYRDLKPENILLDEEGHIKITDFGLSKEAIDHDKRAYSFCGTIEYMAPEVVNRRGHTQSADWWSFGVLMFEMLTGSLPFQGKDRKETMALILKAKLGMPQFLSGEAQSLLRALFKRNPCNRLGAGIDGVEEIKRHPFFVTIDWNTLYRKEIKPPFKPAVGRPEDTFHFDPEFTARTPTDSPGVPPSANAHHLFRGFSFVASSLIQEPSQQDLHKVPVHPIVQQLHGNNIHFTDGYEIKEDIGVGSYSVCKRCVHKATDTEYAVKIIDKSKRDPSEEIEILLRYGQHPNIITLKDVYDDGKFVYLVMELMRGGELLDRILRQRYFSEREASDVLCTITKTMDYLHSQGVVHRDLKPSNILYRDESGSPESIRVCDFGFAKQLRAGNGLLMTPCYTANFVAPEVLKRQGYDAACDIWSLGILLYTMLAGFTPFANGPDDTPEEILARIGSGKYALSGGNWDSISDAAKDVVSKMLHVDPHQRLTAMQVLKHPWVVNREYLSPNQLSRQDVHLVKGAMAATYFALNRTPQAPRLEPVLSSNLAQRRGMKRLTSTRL

Compound: C=CC(=O)Nc1cc(-n2c(=O)ccc3cnc4ccc(-c5ccc(NS(C)(=O)=O)cc5)cc4c32)ccc1C
- % of control ([1]; at 1 µM): 93%
- % of control ([1]; at 10 µM): 100%
- % of control ([2]; at 1 µM): 100%
- % of control ([2]; at 10 µM): 100%

Compound: O=C(NOC[C@H](O)CO)c1ccc(F)c(F)c1Nc1ccc(I)cc1F
- % of control [3]: 100%

Compound: Cc1cc([C@@H](C)Nc2ccccc2C(=O)O)c2nc(N3CCOCC3)cc(=O)n2c1 [AZD-6482]
- % of control [4]: 100%

Compound: N#Cc1cccc(-c2c[nH]c3ncnc(N4CCOCC4)c23)c1
- % of control [5]: 100%
